Experimental data as given in patent publication US10471046B2, “Method for treating, preventing, or reducing the risk of skin infection” (Melinta Subsidiary Corp., priority 2014, dated 2019).
In brackets after ≈: the same amount, converted by molar mass.

system: S. aureus; test: Minimum inhibitory concentrations (MICs) for S. aureus of exemplary compounds (Table 2); type: cell-based; conditions: Staphylococcus aureus, minimum inhibitory concentrations for S. aureus; read-out: MICs
Text: Exemplary compounds in accordance with the invention are listed in Table 2 with their minimum inhibitory concentrations (MICs) (μg/mL) for S. aureus:
Furthermore, the antibiotic compounds can be assayed for anti-proliferative or anti-infective properties on a cellular level. For example, where the target organism is a microorganism, the activity of compounds of interest can be assayed by growing the microorganisms of interest in media either containing or lacking the compound. Growth inhibition can be indicative that the molecule could be acting as a protein synthesis inhibitor. […] For this purpose, a panel of bacterial strains can be assembled to include a variety of target pathogenic species, some containing resistance mechanisms that have been characterized. Use of such a panel of organisms permits the determination of structure-activity relationships not only in regards to potency and spectrum, but also with a view to obviating resistance mechanisms. The assays can be performed in microtiter trays according to conventional methodologies as published by The National Committee for Clinical Laboratory Standards (NCCLS) guidelines (NCCLS. M7-A5-Methods for Dilution Antimicrobial Susceptibility Tests for Bacteria That Grow Aerobically; Approved Standard-Fifth Edition. NCCLS Document M100-S12/M7 (ISBN 1-56238-394-9)).

Point of comparison: CC(=O)NC[C@H]1CN(c2ccc(-c3ccc(CNc4nc(CNC(=O)[C@H](C)N)ns4)cc3)c(F)c2)C(=O)O1 [Compound 2013, N-[5-({4′[5-(S)-(Acetylamino-methyl)-2-oxo-oxazolidin-3-yl]-2′-fluoro-biphenyl-4-ylmethyl}-amino)-[1,2,4]thiadiazol-3-ylmethyl]-2-(S)-amino-propionamide], MIC 1 µg/mL (≈ 1.85 µM). Against it:
- CC(=O)NC[C@H]1CN(c2ccc(-c3ccc(CNC(=O)Cn4ccnn4)cc3)c(F)c2)C(=O)O1 [Compound 4239, N-{4′-[5-(S)-(Acetylamino-methyl)-2-oxo-oxazolidin-3-yl]-2′-fluoro-biphenyl-4-ylmethyl}-2-[1,2,3]triazol-1-yl-acetamide] — 2-fold higher, 2 µg/mL (≈ 4.29 µM)
- CC(=O)NC[C@H]1CN(c2ccc(-c3ccc(CS(=O)(=O)c4nnnn4C)cc3)c(F)c2)C(=O)O1 [Compound 2024, N-{3-[2-Fluoro-4′-(1-methyl-1H-tetrazole-5-sulfonylmethyl)-biphenyl-4-yl]-2-oxo-oxazolidin-5-(S)-ylmethyl}-acetamide] — 4-fold lower, 0.25 µg/mL (≈ 0.512 µM)
- CC(=O)NC[C@H]1CN(c2ccc(-c3ccc(Cn4ccnn4)nc3)c(F)c2)C(=O)O1 [Compound 1036, N-{3-[3-Fluoro-4-(6-[1,2,3]triazol-1-ylmethyl-pyridin-3-yl)-phenyl]-2-oxo-oxazolidin-5-(S)-ylmethyl}-acetamide] — the same, 1 µg/mL (≈ 2.44 µM)
- CC(=O)NC[C@H]1CN(c2ccc(-c3ccc([C@H](CO)N4CCN(C=O)CC4)cc3)c(F)c2)C(=O)O1 [Compound 1045, N-(3-{2-Fluoro-4′-[1-(R)-(4-formyl-piperazin-1-yl)-2-hydroxy-ethyl]-biphenyl-4-yl}-2-oxo-oxazolidin-5-(S)-ylmethyl)-acetamide] — 2-fold lower, 0.5 µg/mL (≈ 1.03 µM)
- CC(=O)NC[C@H]1CN(c2ccc(-c3ccc(CN4CCCC(F)C4)cc3)c(F)c2)C(=O)O1 (mixture of isomers) [Compound 1096, N-{3-[2-Fluoro-4′-(3-(R/S)-fluoro-piperidin-1-ylmethyl)-biphenyl-4-yl]-2-oxo-oxazolidin-5-(S)-ylmethyl}-acetamide] — the same, 1 µg/mL
- CC(=O)NC[C@H]1CN(c2ccc(-c3ccc(CNn4cnnc4)cc3)c(F)c2)C(=O)O1 [Compound 2046, N-{3-[2-Fluoro-4′-([1,2,4]triazol-4-ylaminomethyl)-biphenyl-4-yl]-2-oxo-oxazolidin-5-(S)-ylmethyl}-acetamide] — the same, 1 µg/mL (≈ 2.36 µM)
- CC(=O)NC[C@H]1CN(c2ccc(-c3ccc([C@@H](O)CNCc4ccncc4)cc3)c(F)c2)C(=O)O1 [Compound 4201, N-[3-(2-Fluoro-4′-{1-(R)-hydroxy-2-[(pyridin-4-ylmethyl)-amino]-ethyl}-biphenyl-4-yl)-2-oxo-oxazolidin-5-(S)-ylmethyl]-acetamide] — 2-fold higher, 2 µg/mL (≈ 4.18 µM)
- CCC(O)Cc1cn(CC(=O)NCc2ccc(-c3ccc(N4C[C@H](CNC(C)=O)OC4=O)cc3F)cc2)nn1 (stereo partly drawn) [Compound 4241, N-{4′-[5-(S)-(Acetylamino-methyl)-2-oxo-oxazolidin-3-yl]-2′-fluoro-biphenyl-4-ylmethyl}-2-[4-(2-hydroxy-butyl)-[1,2,3]triazol-1-yl]-acetamide] — 4-fold higher, 4 µg/mL (≈ 7.43 µM)
- CC(=O)NC[C@H]1CN(c2ccc(-c3ccc(NC(=O)NCCCn4ccnc4)cc3)c(F)c2)C(=O)O1 [Compound 6001, N-(3-{2-Fluoro-4′-[3-(3-imidazol-1-yl-propyl)-ureido]-biphenyl-4-yl}-2-oxo-oxazolidin-5-(S)-ylmethyl)-acetamide] — 16-fold higher, 16 µg/mL (≈ 32.4 µM)
- CC(=O)NC[C@H]1CN(c2ccc(-c3ccc(CNCC4CCN(C(=O)OC(C)(C)C)C4)cc3)c(F)c2)C(=O)O1 (stereo partly drawn) [Compound 4317, 3-[({4′-[5-(S)-(Acetylamino-methyl)-2-oxo-oxazolidin-3-yl]-2′-fluoro-biphenyl-4-ylmethyl}-amino)-methyl]-pyrrolidine-1-carboxylic acid tert-butyl ester] — 16-fold higher, 16 µg/mL (≈ 29.6 µM)
- CC(=O)NC[C@H]1CN(c2ccc(-c3ccc(CNCc4c[nH]c(-c5ccccc5)n4)cc3)c(F)c2)C(=O)O1 [Compound 4123, N-[3-(2-Fluoro-4′-{[(2-phenyl-1H-imidazol-4-ylmethyl)-amino]-methyl}-biphenyl-4-yl)-2-oxo-oxazolidin-5-(S)-ylmethyl]-acetamide] — 16-fold higher, 16 µg/mL (≈ 31.2 µM)
- CC(=O)NC[C@H]1CN(c2ccc(-c3ccc(CNCc4ccc5ccccc5n4)cc3)c(F)c2)C(=O)O1 [Compound 4019, N-[3-(2-Fluoro-4′-{[(quinolin-2-ylmethyl)-amino]-methyl}-biphenyl-4-yl)-2-oxo-oxazolidin-5-(S)-ylmethyl]-acetamide] — 2-fold lower, 0.5 µg/mL (≈ 1 µM)
- COc1cc(CN(Cc2ccc(-c3ccc(N4C[C@H](CNC(C)=O)OC4=O)cc3F)cc2)Cc2ccc(O)c(OC)c2)ccc1O [Compound 4037, N-[3-(4′-{[Bis-(4-hydroxy-3-methoxy-benzyl)-amino]-methyl}-2-fluoro-biphenyl-4-yl)-2-oxo-oxazolidin-5-(S)-ylmethyl]-acetamide] — 2-fold higher, 2 µg/mL (≈ 3.18 µM)
- CC(=O)NC[C@H]1CN(c2ccc(-c3ccc(CNCc4cc5ccccc5n4C)cc3)c(F)c2)C(=O)O1 [Compound 4049, N-[3-(2-Fluoro-4′-{[(1-methyl-1H-indol-2-ylmethyl)-amino]-methyl}-biphenyl-4-yl)-2-oxo-oxazolidin-5-(S)-ylmethyl]-acetamide] — the same, 1 µg/mL (≈ 2 µM)
- CC(=O)NC[C@H]1CN(c2ccc(-c3ccc(CS(=O)(=O)Nc4cccnc4)cc3)c(F)c2)C(=O)O1 [Compound 2045, N-{3-[2-Fluoro-4′-(pyridin-3-ylsulfamoylmethyl)-biphenyl-4-yl]-2-oxo-oxazolidin-5-(S)-ylmethyl}-acetamide] — 2-fold higher, 2 µg/mL (≈ 4.01 µM)
- CC(=O)NC[C@H]1CN(c2ccc(-c3ccc(C(C)NCc4ccoc4)cc3)c(F)c2)C(=O)O1 (mixture of isomers) [Compound 4144, N-[3-(2-Fluoro-4′-{1-(R/S)-[(furan-3-ylmethyl)-amino]-ethyl}-biphenyl-4-yl)-2-oxo-oxazolidin-5-(S)-ylmethyl]-acetamide] — 4-fold higher, 4 µg/mL
- CC(=O)NC[C@H]1CN(c2ccc(-c3ccc(COCc4ccccn4)nc3)c(F)c2)C(=O)O1 [Compound 4195, N-(3-{3-Fluoro-4-[6-(pyridin-2-ylmethoxymethyl)-pyridin-3-yl]-phenyl}-2-oxo-oxazolidin-5-(S)-ylmethyl)-acetamide] — the same, 1 µg/mL (≈ 2.22 µM)
- CC(=O)NC[C@H]1CN(c2ccc(-c3ccc(CNCCSc4nncs4)cc3)c(F)c2)C(=O)O1 [Compound 5003, N-[3-(2-Fluoro-4′-{[2-([1,3,4]thiadiazol-2-ylsulfanyl)-ethylamino]-methyl}-biphenyl-4-yl)-2-oxo-oxazolidin-5-(S)-ylmethyl]-acetamide] — the same, 1 µg/mL (≈ 1.99 µM)
- CC(=O)NC[C@H]1CN(c2ccc(-c3ccc(CNCCn4ccnn4)cc3)c(F)c2)C(=O)O1 [Compound 4262, N-(3-{2-Fluoro-4′-[(2-[1,2,3]triazol-1-yl-ethylamino)-methyl]-biphenyl-4-yl}-2-oxo-oxazolidin-5-(S)-ylmethyl)-acetamide] — 2-fold higher, 2 µg/mL (≈ 4.42 µM)
- CC(=O)NC[C@H]1CN(c2ccc(-c3ccc(CNC(=O)[C@H](N)Cc4c[nH]c5ccccc45)cc3)c(F)c2)C(=O)O1 [Compound 4307, N-{4′-[5-(S)-(Acetylamino-methyl)-2-oxo-oxazolidin-3-yl]-2′-fluoro-biphenyl-4-ylmethyl}-2-(R)-amino-3-(1H-indol-3-yl)-propionamide] — 2-fold higher, 2 µg/mL (≈ 3.68 µM)
- COc1ccc(CNCc2ccc(-c3ccc(N4C[C@H](CNC(C)=O)OC4=O)cc3F)cc2)cn1 [Compound 4054, N-[3-(2-Fluoro-4′-{[(6-methoxy-pyridin-3-ylmethyl)-amino]-methyl}-biphenyl-4-yl)-2-oxo-oxazolidin-5-(S)-ylmethyl]-acetamide] — the same, 1 µg/mL (≈ 2.09 µM)
- CC(=O)NC[C@H]1CN(c2ccc(-c3ccc(CNCc4nccs4)c(F)c3)c(F)c2)C(=O)O1 [Compound 4154, N-[3-(2,3′-Difluoro-4′-{[(thiazol-2-ylmethyl)-amino]-methyl}-biphenyl-4-yl)-2-oxo-oxazolidin-5-(S)-ylmethyl]-acetamide] — the same, 1 µg/mL (≈ 2.12 µM)
- CC(=O)NC[C@H]1CC(c2ccc(-c3ccc(CNC(=O)c4ccccc4C(=O)O)cc3)nc2)=NO1 [Compound 4107, N-(4-{5-[5-(R)-(Acetylamino-methyl)-4,5-(S)-dihydro-isoxazol-3-yl]-pyridin-2-yl}-benzyl)-phthalamic acid] — 130-fold higher, 128 µg/mL (≈ 271 µM)
- CC(=O)NC[C@H]1CN(c2ccc(-c3ccc(CNCc4ccc(N5CCOCC5)nc4)cc3)c(F)c2)C(=O)O1 [Compound 4118, N-[3-(2-Fluoro-4′-{[(6-morpholin-4-yl-pyridin-3-ylmethyl)-amino]-methyl}-biphenyl-4-yl)-2-oxo-oxazolidin-5-(S)-ylmethyl]-acetamide] — 8-fold higher, 8 µg/mL (≈ 15 µM)
- CC(=O)NC[C@H]1CN(c2ccc(-c3ccc(CNCc4cccnc4F)cc3)c(F)c2)C(=O)O1 [Compound 4257, N-[3-(2-Fluoro-4′-{[(2-fluoro-pyridin-3-ylmethyl)-amino]-methyl}-biphenyl-4-yl)-2-oxo-oxazolidin-5-(S)-ylmethyl]-acetamide] — 2-fold lower, 0.5 µg/mL (≈ 1.07 µM)

same assay, conditions: Staphylococcus aureus, read-out: MICs

Point of comparison: CC(=O)NC[C@H]1CN(c2ccc(-c3ccc(CN4CC(C#N)C4)cc3)c(F)c2)C(=O)O1 [Compound 1022, N-{3-[4′-(3-Cyano-azetidin-1-ylmethyl)-2-fluoro-biphenyl-4-yl]-2-oxo-oxazolidin-5-(S)-ylmethyl}-acetamide], MIC 0.25 µg/mL (≈ 0.592 µM). Against it:
- COc1cccc(CNc2nc(Cc3ccc(-c4ccc(N5C[C@H](CNC(C)=O)OC5=O)cc4F)cc3)cs2)c1 [Compound 1021, N-(3-{2-Fluoro-4′-[2-(3-methoxy-benzylamino)-thiazol-4-ylmethyl]-biphenyl-4-yl}-2-oxo-oxazolidin-5-(S)-ylmethyl)-acetamide] — 4-fold higher, 1 µg/mL (≈ 1.78 µM)
